Laboratory results published in patent US20240108602A1, “TREATMENT OF MENTAL DISORDERS” (GH Research Ireland Limited, priority 2022, published 2024).

Test system: patients with postpartum depression (PPD)
Assay: Clinical trial of inhaled 5-MeO-DMT (IDR) in patients with postpartum depression
Method: The single-arm, open-label clinical trial will involve 15 adult female patients with clinically diagnosed postpartum depression (PPD).
The second dose (12 mg) will only be administered if: • a. A peak experience (total score of ≥75) has not been achieved following the 6 mg dose, and • b. The 6 mg dose was safe and well-tolerated according to the investigator, • c. Any psychoactive effects (PsE) of the prior dose have subsided, and • d. Pre-dose vital parameters and forced expiratory volume in one second (FEV1) are in normal range, or if outside of the normal range, are not clinically significant according to the investigator. • 3. Similarly, a third dose (18 mg) will only be administered if: • a. A peak experience (total score of ≥75) has not been achieved following the 12 mg dose, and • b. The 12 mg dose was safe and well-tolerated according to the investigator, and • c. Any PsE of the prior dose have subsided, and • d. Pre-dose vital parameters and forced expiratory volume in one second (FEV1) are in normal range, or if outside of the normal range, are not clinically significant according to the investigator.
The patients will be assessed for a peak psychedelic experience (based on a patient-scored visual analogue scale, the PE scale), sedation, and other endpoints after dosing.
Follow-up visits are planned for Day 1, and Day 7 after the dosing day.
The following criteria must be met by all patients considered for clinical trial participation: • 1. Is female and in the age range between 18 and 45 years (inclusive) at screening. • 2. Has a body mass index (BMI) in the range of 18.5 and 35 kg/m^2 (inclusive) at screening. • 3. Meets the trial criteria for PPD as assessed by a trial psychiatrist or registered psychologist: • a. Diagnosis of Major Depressive Disorder without psychotic features, confirmed by the Mini-International Neuropsychiatric Interview (MINI), with peri-partum onset that began no earlier than gestation and no later than the first 4 weeks postpartum. • b. Has a Montgomery-Åsberg Depression Rating Scale (MADRS) total score of equal to or greater than 28 at screening and pre-dose on Day 0. • 6. […] Patients must have a negative pregnancy test at screening and on the pre-test day (Day−1). • 5. Is willing to delay start of other antidepressant or anxiety medication until after the end of the trial at Day 7 and agrees to keep any psychotherapy unchanged during the trial.

What does the source list for `COc1ccc2[nH]cc(CCN(C)C)c2c1` [5-MeO-DMT]?
ECG, safety laboratory analyses, CADSS (PPD patient 1): unremarkable; MADRS response (at least 50% improvement) and MADRS remission (total score 10 or less) (PPD patient 1): fulfilled standard criteria; reported adverse events (mild, resolved spontaneously) (PPD patient 1): cramping left abdominal pain and headache; MADRS Apparent sadness improvement (PPD patient 1, 2 hr): 5; MADRS Apparent sadness score (PPD patient 1, 2 hr): 0; MADRS Concentration Difficulties improvement (PPD patient 1, 2 hr): 0; MADRS Concentration Difficulties score (PPD patient 1, 2 hr): 0; MADRS Inability to Feel improvement (PPD patient 1, 2 hr): 3; MADRS Inability to Feel score (PPD patient 1, 2 hr): 0; MADRS Inner Tension improvement (PPD patient 1, 2 hr): 5; MADRS Inner Tension score (PPD patient 1, 2 hr): 0; MADRS Lassitude improvement (PPD patient 1, 2 hr): 3; MADRS Lassitude score (PPD patient 1, 2 hr): 0; MADRS Pessimistic Thoughts improvement (PPD patient 1, 2 hr): 4; MADRS Pessimistic Thoughts score (PPD patient 1, 2 hr): 0; MADRS Reduced Sleep improvement (PPD patient 1, 2 hr): 0; MADRS Reduced Sleep score (PPD patient 1, 2 hr): 5; MADRS Reduced appetite improvement (PPD patient 1, 2 hr): 0; MADRS Reduced appetite score (PPD patient 1, 2 hr): 0; MADRS Reported sadness improvement (PPD patient 1, 2 hr): 4; MADRS Reported sadness score (PPD patient 1, 2 hr): 0; MADRS Suicidal Thoughts improvement (PPD patient 1, 2 hr): 0; MADRS Suicidal Thoughts score (PPD patient 1, 2 hr): 0; Total MADRS improvement (PPD patient 1, 2 hr): 24; Total MADRS score (PPD patient 1, 2 hr): 5; BPRS Anxiety improvement (PPD patient 1, Day 1): 6; BPRS Anxiety score (PPD patient 1, Day 1): 1; BPRS Blunted affect improvement (PPD patient 1, Day 1): 0; BPRS Blunted affect score (PPD patient 1, Day 1): 1; BPRS Conceptual disorganization improvement (PPD patient 1, Day 1): 0; BPRS Conceptual disorganization score (PPD patient 1, Day 1): 1; BPRS Depressive Mood improvement (PPD patient 1, Day 1): 5; BPRS Depressive Mood score (PPD patient 1, Day 1): 1; BPRS Disorientation improvement (PPD patient 1, Day 1): 0; BPRS Disorientation score (PPD patient 1, Day 1): 1; BPRS Emotional withdrawal improvement (PPD patient 1, Day 1): 4; BPRS Emotional withdrawal score (PPD patient 1, Day 1): 1; BPRS Excitement improvement (PPD patient 1, Day 1): 1; BPRS Excitement score (PPD patient 1, Day 1): 1; BPRS Grandiosity improvement (PPD patient 1, Day 1): 0; BPRS Grandiosity score (PPD patient 1, Day 1): 1; BPRS Guilt feelings improvement (PPD patient 1, Day 1): 5; BPRS Guilt feelings score (PPD patient 1, Day 1): 1; BPRS Hallucinatory behaviour improvement (PPD patient 1, Day 1): 0; BPRS Hallucinatory behaviour score (PPD patient 1, Day 1): 1; BPRS Hostility improvement (PPD patient 1, Day 1): 0; BPRS Hostility score (PPD patient 1, Day 1): 1; BPRS Mannerisms and Posturing improvement (PPD patient 1, Day 1): 0; BPRS Mannerisms and Posturing score (PPD patient 1, Day 1): 1; BPRS Motor retardation improvement (PPD patient 1, Day 1): 0; BPRS Motor retardation score (PPD patient 1, Day 1): 1; BPRS Somatic Concern improvement (PPD patient 1, Day 1): 5; BPRS Somatic Concern score (PPD patient 1, Day 1): 1; BPRS Suspiciousness improvement (PPD patient 1, Day 1): 0; BPRS Suspiciousness score (PPD patient 1, Day 1): 1; BPRS Tension improvement (PPD patient 1, Day 1): 5; BPRS Tension score (PPD patient 1, Day 1): 1; BPRS Uncooperativeness improvement (PPD patient 1, Day 1): 0; BPRS Uncooperativeness score (PPD patient 1, Day 1): 1; BPRS Unusual Thought Content improvement (PPD patient 1, Day 1): 0; BPRS Unusual Thought Content score (PPD patient 1, Day 1): 1; MADRS Apparent sadness improvement (PPD patient 1, Day 1): 5; MADRS Apparent sadness score (PPD patient 1, Day 1): 0; MADRS Concentration Difficulties improvement (PPD patient 1, Day 1): 0; MADRS Concentration Difficulties score (PPD patient 1, Day 1): 0; MADRS Inability to Feel improvement (PPD patient 1, Day 1): 3; MADRS Inability to Feel score (PPD patient 1, Day 1): 0; MADRS Inner Tension improvement (PPD patient 1, Day 1): 5; MADRS Inner Tension score (PPD patient 1, Day 1): 0; MADRS Lassitude improvement (PPD patient 1, Day 1): 3; MADRS Lassitude score (PPD patient 1, Day 1): 0; MADRS Pessimistic Thoughts improvement (PPD patient 1, Day 1): 4; MADRS Pessimistic Thoughts score (PPD patient 1, Day 1): 0; MADRS Reduced Sleep improvement (PPD patient 1, Day 1): 5; MADRS Reduced Sleep score (PPD patient 1, Day 1): 0; MADRS Reduced appetite improvement (PPD patient 1, Day 1): 0; MADRS Reduced appetite score (PPD patient 1, Day 1): 0; MADRS Reported sadness improvement (PPD patient 1, Day 1): 4; MADRS Reported sadness score (PPD patient 1, Day 1): 0; MADRS Suicidal Thoughts improvement (PPD patient 1, Day 1): 0; MADRS Suicidal Thoughts score (PPD patient 1, Day 1): 0; Total MADRS improvement (PPD patient 1, Day 1): 29; Total MADRS score (PPD patient 1, Day 1): 0; BIMF TOTAL Δ vs Day 0 (PPD patient 1, Day 7): 13; BIMF domain Adjustment % Improvement (PPD patient 1, Day 7): 20.00%; BIMF domain Adjustment score (PPD patient 1, Day 7): 6; BIMF domain Adjustment Δ vs Day 0 (PPD patient 1, Day 7): 1; BIMF domain Infant Care % Improvement (PPD patient 1, Day 7): 0.00%; BIMF domain Infant Care score (PPD patient 1, Day 7): 12; BIMF domain Infant Care Δ vs Day 0 (PPD patient 1, Day 7): 0; BIMF domain Management % Improvement (PPD patient 1, Day 7): 18%; BIMF domain Management score (PPD patient 1, Day 7): 33; BIMF domain Management Δ vs Day 0 (PPD patient 1, Day 7): 5; BIMF domain Mother-Child Interaction score (PPD patient 1, Day 7): 17; BIMF domain Mother-Child Interaction Δ vs Day 0 (PPD patient 1, Day 7): 2; BIMF domain Psychological Well-being score (PPD patient 1, Day 7): 53; BIMF domain Psychological Well-being Δ vs Day 0 (PPD patient 1, Day 7): 9; BIMF domain Self-Care % Improvement (PPD patient 1, Day 7): 44%; BIMF domain Self-Care score (PPD patient 1, Day 7): 13; BIMF domain Self-Care Δ vs Day 0 (PPD patient 1, Day 7): 4; BIMF domain Social Support score (PPD patient 1, Day 7): 18; BIMF domain Social Support Δ vs Day 0 (PPD patient 1, Day 7): 1; BIMF item 1 (I am a good mother) score (PPD patient 1, Day 7): 6; BIMF item 1 Δ vs Day 0 (PPD patient 1, Day 7): 0; BIMF item 2 (I feel rested) score (PPD patient 1, Day 7): 2; BIMF item 2 Δ vs Day 0 (PPD patient 1, Day 7): 2; BIMF item 3 (comfortable with the way I've chosen to feed my baby) score (PPD patient 1, Day 7): 6; BIMF item 3 Δ vs Day 0 (PPD patient 1, Day 7): 0; BIMF item 4 (My baby and I understand each other) score (PPD patient 1, Day 7): 5; BIMF item 4 Δ vs Day 0 (PPD patient 1, Day 7): 0; BIMF item 5 (able to relax and enjoy time with my baby) score (PPD patient 1, Day 7): 6; BIMF item 5 Δ vs Day 0 (PPD patient 1, Day 7): 1; BIMF item 6 (people I can trust to care for my baby when I need a break) score (PPD patient 1, Day 7): 6; BIMF item 6 Δ vs Day 0 (PPD patient 1, Day 7): 0; BIMF item 7 Δ vs Day 0 (PPD patient 1, Day 7): 0; BIMF item 8 (getting enough adult interaction) score (PPD patient 1, Day 7): 6; BIMF item 8 Δ vs Day 0 (PPD patient 1, Day 7): 0; BIMF item 9 (getting enough encouragement from other people) score (PPD patient 1, Day 7): 6; BIMF item 9 Δ vs Day 0 (PPD patient 1, Day 7): 1; BIMF item 10 (I trust my own feelings (instincts)) score (PPD patient 1, Day 7): 6; BIMF item 10 Δ vs Day 0 (PPD patient 1, Day 7): 1; BIMF item 11 (a little time each week to do something for myself) score (PPD patient 1, Day 7): 6; BIMF item 11 Δ vs Day 0 (PPD patient 1, Day 7): 1
